Patent publication US9469650B2, “Melampomagnolide B derivatives” (BOARD OF TRUSTEES OF THE UNIVERSITY OF ARKANSAS, priority 2013, dated 2016)

How the values were obtained:
CCRF-CEM = assay: panel of 60 human tumor cell lines, growth inhibition (Leukemia); conditions: Homo sapiens; for CC50: read-out: LC50; for IC (TGI): read-out: TGI
LOX IMVI = assay: panel of 60 human tumor cell lines, growth inhibition (Melanoma); conditions: Homo sapiens; for CC50: read-out: LC50; for IC (TGI): read-out: TGI
M14 = assay: as above; conditions: Homo sapiens; for GI50: M14; for CC50: M14, read-out: LC50; for IC (TGI): M14, read-out: TGI
SK-MEL-2 = assay: as above; conditions: Homo sapiens; for GI50: SK-MEL-2; for CC50: SK-MEL-2, read-out: LC50; for IC (TGI): SK-MEL-2, read-out: TGI
SF-268 = assay: panel of 60 human tumor cell lines, growth inhibition (CNS Cancer); conditions: Homo sapiens; for GI50: SF-268; for CC50: SF-268, read-out: LC50; for IC (TGI): SF-268, read-out: TGI
HT29 = assay: panel of 60 human tumor cell lines, growth inhibition (Colon Cancer); conditions: for Percent Growth: HT29; for GI50 / CC50 / IC (TGI): Homo sapiens; for GI50: HT-29; for CC50: HT-29, read-out: LC50; for IC (TGI): HT-29, read-out: TGI
SW-620 = assay: as above; conditions: Homo sapiens; for CC50: SW-620, read-out: LC50; for IC (TGI): SW-620, read-out: TGI
CAKI-1 = assay: panel of 60 human tumor cell lines, growth inhibition (Renal Cancer); conditions: Homo sapiens; for GI50: CAKI-1; for CC50: CAKI-1, read-out: LC50; for IC (TGI): CAKI-1, read-out: TGI
TK-10 = assay: as above; conditions: Homo sapiens; for CC50: TK-10, read-out: LC50; for IC (TGI): TK-10, read-out: TGI
MCF7 = assay: panel of 60 human tumor cell lines, growth inhibition (Breast Cancer); conditions: Homo sapiens; for CC50: MCF7, read-out: LC50; for IC (TGI): MCF7, read-out: TGI
MDA-MB-231/ATCC = assay: as above; conditions: Homo sapiens; for GI50: MDA-MB-231; for CC50: MDA-MB-231, read-out: LC50; for IC (TGI): MDA-MB-231, read-out: TGI
IGROV1 = assay: panel of 60 human tumor cell lines, growth inhibition (Ovarian Cancer); conditions: Homo sapiens; for GI50: IGROV-1; for CC50: IGROV-1, read-out: LC50; for IC (TGI): IGROV-1, read-out: TGI
OVCAR-5 = assay: as above; conditions: for GI50 / CC50 / IC (TGI): Homo sapiens; for CC50: OVCAR-5, read-out: LC50; for IC (TGI): OVCAR-5, read-out: TGI
OVCAR-8 = assay: as above; conditions: Homo sapiens; for GI50: OVCAR-8; for CC50: OVCAR-8, read-out: LC50; for IC (TGI): OVCAR-8, read-out: TGI
SK-OV-3 = assay: as above; conditions: Homo sapiens; for GI50: SK-OV-3; for CC50: SK-OV-3, read-out: LC50; for IC (TGI): SK-OV-3, read-out: TGI
A549/ATCC = assay: panel of 60 human tumor cell lines, growth inhibition (Non-Small Cell Lung Cancer); conditions: Homo sapiens; for GI50: A549; for CC50: A549, read-out: LC50; for IC (TGI): A549, read-out: TGI
NCI-H23 = assay: as above; conditions: Homo sapiens; for GI50: NCI-H23; for CC50: NCI-H23, read-out: LC50; for IC (TGI): NCI-H23, read-out: TGI
NCI-H522 = assay: as above; conditions: Homo sapiens; for GI50: NCI-H522; for CC50: NCI-H522, read-out: LC50; for IC (TGI): NCI-H522, read-out: TGI

## C=C1C(=O)O[C@H]2[C@H]1CC/C(COC(=O)NCCN1CCOCC1)=C\CC[C@@]1(C)O[C@@H]21 [JVM 57, ((1aR,7aS,10aS,10bS,E)-1a-methyl-8-methylene-9-oxo-1a,2,3,6,7,7a,8,9,10a,10b-decahydrooxireno[2′,3′:9,10]-cyclodeca[1,2-b]furan-5-yl)-methyl(2-morpholinoethyl)carbamate]
CCRF-CEM
  GI50: 3.03 µM
  CC50: ≥ 109 µM
  IC (TGI): 11.6 µM
CCRF-CEM; 5-dose assay
  GI50: 3.03 µM
LOX IMVI
  GI50: 4.84 µM
  CC50: 47 µM
  IC (TGI): 17.5 µM
LOX IMVI; 5-dose assay
  GI50: 4.84 µM
M14
  GI50: 7.97 µM
  CC50: 58.5 µM
  IC (TGI): 23.1 µM
SK-MEL-2
  GI50: 13.2 µM
  CC50: 65.5 µM
  IC (TGI): 29.4 µM
SF-268
  GI50: 14.5 µM
  CC50: 64.4 µM
  IC (TGI): 30.5 µM
HT29; Log10 Concentration −4.0
  Percent Growth: −74%
HT29; Log10 Concentration −5.0
  Percent Growth: 43%
HT29; Log10 Concentration −6.0
  Percent Growth: 110%
HT29; Log10 Concentration −7.0
  Percent Growth: 108%
HT29; Log10 Concentration −8.0
  Percent Growth: 102%
HT29
  GI50: 7.83 µM
  CC50: 62.7 µM
  IC (TGI): 23.3 µM
SW-620; SW-620, SW-620
  GI50: 3.48 µM
SW-620; SW-620, SW-620, 5-dose assay
  GI50: 3.48 µM
SW-620
  CC50: 64.8 µM
  IC (TGI): 13.9 µM
CAKI-1
  GI50: 4.31 µM
  CC50: 52.7 µM
  IC (TGI): 17.7 µM
TK-10; TK-10, TK-10
  GI50: 3.93 µM
TK-10; TK-10, TK-10, 5-dose assay
  GI50: 3.93 µM
TK-10
  CC50: 38.9 µM
  IC (TGI): 13.9 µM
MCF7; MCF7, MCF7
  GI50: 3.54 µM
MCF7; MCF7, MCF7, 5-dose assay
  GI50: 3.54 µM
MCF7
  CC50: 53.1 µM
  IC (TGI): 14.4 µM
MDA-MB-231/ATCC
  GI50: 13.7 µM
  CC50: 64.3 µM
  IC (TGI): 29.7 µM
IGROV1
  GI50: 3.49 µM
  CC50: 58.6 µM
  IC (TGI): 14.6 µM
OVCAR-5; OVCAR-5
  GI50: 15.7 µM
OVCAR-5
  CC50: 78.5 µM
  IC (TGI): 35.2 µM
OVCAR-8
  GI50: 12.7 µM
  CC50: > 100 µM
  IC (TGI): 36.8 µM
SK-OV-3
  GI50: 48.5 µM
  CC50: > 100 µM
  IC (TGI): > 100 µM
A549/ATCC
  GI50: 28.5 µM
  CC50: > 100 µM
  IC (TGI): > 100 µM
NCI-H23
  GI50: 15.8 µM
  CC50: 84.3 µM
  IC (TGI): 36.5 µM
NCI-H522
  GI50: 2.13 µM
  CC50: 31.8 µM
  IC (TGI): 5.88 µM

## C=C1C(=O)O[C@H]2[C@H]1CC/C(COC(=O)NCCN1CCCC1)=C\CC[C@@]1(C)O[C@@H]21 [JVM 59, ((1aR,7aS,10aS,10bS,E)-1a-methyl-8-methylene-9-oxo-1a,2,3,6,7,7a,8,9,10a,10b-decahydrooxireno[2′,3′:9,10]cyclodeca[1,2-b]furan-5-yl)methyl-(2-(pyrrolidin-1-yl)ethyl)carbamate]
CCRF-CEM; 5-dose assay
  GI50: 2.49 µM
CCRF-CEM; five dose
  GI50: 2.49 µM
CCRF-CEM
  CC50: 64.3 µM
  IC (TGI): 9.12 µM
LOX IMVI; 5-dose assay
  GI50: 7.88 µM
LOX IMVI; five dose
  GI50: 7.88 µM
LOX IMVI
  CC50: 60.6 µM
  IC (TGI): 23.4 µM
M14
  GI50: 9.65 µM
  CC50: 58.1 µM
  IC (TGI): 24 µM
SK-MEL-2
  GI50: 14 µM
  CC50: 62.4 µM
  IC (TGI): 29.5 µM
SF-268
  GI50: 14.7 µM
  CC50: 60.8 µM
  IC (TGI): 30 µM
HT29; Log10 Concentration −4.0
  Percent Growth: −76%
HT29; Log10 Concentration −5.0
  Percent Growth: 59%
HT29; Log10 Concentration −6.0
  Percent Growth: 99%
HT29; Log10 Concentration −7.0
  Percent Growth: 101%
HT29; Log10 Concentration −8.0
  Percent Growth: 98%
HT29
  GI50: 11.7 µM
  CC50: 64.4 µM
  IC (TGI): 27.4 µM
SW-620; SW-620, SW-620, five dose
  GI50: 3.46 µM
SW-620; SW-620, SW-620, 5-dose assay
  GI50: 3.46 µM
SW-620
  CC50: 47.2 µM
  IC (TGI): 13.8 µM
CAKI-1
  GI50: 6.86 µM
  CC50: 51.8 µM
  IC (TGI): 21.2 µM
TK-10; TK-10, TK-10, five dose
  GI50: 3.11 µM
TK-10; TK-10, TK-10, 5-dose assay
  GI50: 3.11 µM
TK-10
  CC50: 40.2 µM
  IC (TGI): 14.1 µM
MCF7; MCF7, MCF7, five dose
  GI50: 3.91 µM
MCF7; MCF7, MCF7, 5-dose assay
  GI50: 3.91 µM
MCF7
  CC50: 63.7 µM
  IC (TGI): 17.1 µM
MDA-MB-231/ATCC
  GI50: 15.2 µM
  CC50: 61.6 µM
  IC (TGI): 30.6 µM
IGROV1
  GI50: 4.09 µM
  CC50: 68.5 µM
  IC (TGI): 16.2 µM
OVCAR-5; OVCAR-5
  GI50: 13.5 µM
OVCAR-5
  CC50: 59.3 µM
  IC (TGI): 28.3 µM
OVCAR-5; OVCAR-5, Log10 Concentration −7.0
  Percent Growth: 9B
OVCAR-8
  GI50: 13.4 µM
  CC50: 72.2 µM
  IC (TGI): 31.1 µM
SK-OV-3
  GI50: 29.4 µM
  CC50: > 100 µM
  IC (TGI): > 100 µM
A549/ATCC
  GI50: 27.6 µM
  CC50: > 100 µM
  IC (TGI): 96.5 µM
NCI-H23
  GI50: 16.4 µM
  CC50: 80.4 µM
  IC (TGI): 36.3 µM
NCI-H522
  GI50: 1.78 µM
  CC50: 32.2 µM
  IC (TGI): 5.05 µM
